Values quoted from earlier work in patent US20220047514A1, “SOLID ORAL PHARMACEUTICAL COMPOSITIONS FOR CHRONOTROPIC ADMINISTRATION OF DIPEPTIDYL PEPTIDASE IV INHIBITORS” (priority 2018, published 2022).

Legend:
[1] = molecular target: DPP-9 (Homo sapiens, UniProt Q86TI2); settings: at therapeutic concentrations
[2] = molecular target: DPP-8 (Homo sapiens, UniProt Q6V1X1); settings: at therapeutic concentrations
Sequence of DPP-8 (Q6V1X1 whole entry): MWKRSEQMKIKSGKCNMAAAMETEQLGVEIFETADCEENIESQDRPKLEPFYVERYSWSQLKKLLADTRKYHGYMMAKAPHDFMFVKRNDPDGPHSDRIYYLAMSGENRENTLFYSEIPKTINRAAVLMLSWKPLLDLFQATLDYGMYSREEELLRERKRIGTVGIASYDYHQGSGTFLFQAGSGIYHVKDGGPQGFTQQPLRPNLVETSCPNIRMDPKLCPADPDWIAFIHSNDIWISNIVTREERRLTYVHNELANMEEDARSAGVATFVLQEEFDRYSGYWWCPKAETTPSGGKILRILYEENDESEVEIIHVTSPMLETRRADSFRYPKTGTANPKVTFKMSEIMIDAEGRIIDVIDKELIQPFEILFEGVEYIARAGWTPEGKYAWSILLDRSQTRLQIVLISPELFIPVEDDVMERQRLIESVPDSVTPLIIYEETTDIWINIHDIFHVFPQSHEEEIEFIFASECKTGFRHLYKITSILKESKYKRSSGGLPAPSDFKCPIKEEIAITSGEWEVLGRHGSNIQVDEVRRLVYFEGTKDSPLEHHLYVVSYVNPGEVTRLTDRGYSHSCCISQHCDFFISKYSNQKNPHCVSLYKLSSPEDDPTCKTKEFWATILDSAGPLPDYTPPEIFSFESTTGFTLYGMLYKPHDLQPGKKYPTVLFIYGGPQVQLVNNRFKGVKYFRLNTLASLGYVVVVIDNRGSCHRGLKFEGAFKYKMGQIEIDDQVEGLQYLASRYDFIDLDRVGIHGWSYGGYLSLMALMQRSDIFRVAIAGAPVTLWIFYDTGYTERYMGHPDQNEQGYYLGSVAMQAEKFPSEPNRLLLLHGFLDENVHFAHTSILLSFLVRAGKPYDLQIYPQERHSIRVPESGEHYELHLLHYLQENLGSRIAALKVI

Sequence of DPP-9 (Q86TI2 whole entry): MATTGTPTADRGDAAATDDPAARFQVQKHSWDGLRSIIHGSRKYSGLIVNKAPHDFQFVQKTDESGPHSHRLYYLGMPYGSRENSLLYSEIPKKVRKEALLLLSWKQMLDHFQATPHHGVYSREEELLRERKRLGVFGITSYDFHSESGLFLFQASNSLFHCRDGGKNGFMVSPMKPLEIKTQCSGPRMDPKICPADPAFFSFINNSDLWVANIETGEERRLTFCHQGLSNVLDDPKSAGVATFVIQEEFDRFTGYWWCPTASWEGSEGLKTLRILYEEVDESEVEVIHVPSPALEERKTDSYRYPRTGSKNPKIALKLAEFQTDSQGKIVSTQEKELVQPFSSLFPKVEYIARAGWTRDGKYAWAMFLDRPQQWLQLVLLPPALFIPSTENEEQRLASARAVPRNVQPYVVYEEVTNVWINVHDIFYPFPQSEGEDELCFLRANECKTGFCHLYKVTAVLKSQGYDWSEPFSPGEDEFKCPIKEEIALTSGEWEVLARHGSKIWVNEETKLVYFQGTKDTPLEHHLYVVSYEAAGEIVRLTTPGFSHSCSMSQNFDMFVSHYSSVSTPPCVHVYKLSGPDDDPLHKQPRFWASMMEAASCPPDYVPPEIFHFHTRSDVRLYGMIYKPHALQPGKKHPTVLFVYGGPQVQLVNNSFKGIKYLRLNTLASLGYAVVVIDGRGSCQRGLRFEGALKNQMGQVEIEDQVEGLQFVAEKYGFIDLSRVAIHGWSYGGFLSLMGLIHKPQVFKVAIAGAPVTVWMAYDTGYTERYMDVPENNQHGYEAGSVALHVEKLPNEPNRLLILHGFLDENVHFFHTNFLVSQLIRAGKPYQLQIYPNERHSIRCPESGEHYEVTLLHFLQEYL

inhibition of the activity of DPP-9 [1]: does not inhibit
inhibition of the activity of DPP-8 [2]: does not inhibit
SMILES: N[C@@H](CC(=O)N1CCn2c(nnc2C(F)(F)F)C1)Cc1cc(F)c(F)cc1F [Sitagliptin, sitagliptin]
